Measurements as given in patent US20250019401A1, “ANTIMICROBIAL PEPTIDE BOLESPLEENIN OF BOLEOPHTHALMUS PECTINIROSTRIS AND APPLICATION THEREOF” (Xiamen University, priority 2023, published 2025).
Where a SMILES comes first, the peptide text is derived from it.

Legend:
Format in all cases: cell-based
Acinetobacter baumannii = tested on: Acinetobacter baumannii
Excerpt: (§1) Bacterial strains involved in Embodiment 2 are as follows: Staphylococcus aureus, Acinetobacter baumannii, Escherichia coli, Enterococcus faecium, Enterococcus faecalis, Pseudomonas aeruginosa, Cryptococcus neoformans, Fusarium oxysporum, Aspergillus flavus, and Fusarium solani.
(§2) The bacterial strains are purchased from the China General Microbiological Culture Collection Center (CGMCC).
(§3) A specific analysis method of this embodiment is as follows:
(§4) (1) The conserved strains are coated on a nutrient broth plate, a Yeast Extract Peptone Dextrose (YPD) plate, or a potato dextrose plate and are inverted and incubated for 1-7 days.
(§5) (2) Colonies are picked from the plates, inoculated on a slant with a corresponding medium, continually incubated for 1-7 days, and washed down from the slant with corresponding medium with 10 mMol/L (mM) of sodium phosphate buffer (pH=7.4), and concentrations of suspensions of the bacteria or suspensions of the fungi are adjusted. The suspensions of the bacteria are diluted so that final concentrations are 5×10^5 CFU/mL. Mold spores of the suspensions of the fungi are counted under an optical microscope using a hemocyte counting plate, and concentrations of mold spores are adjusted to final concentrations of 5×10^4 spores/mL.
(§6) (3) Powder of the synthesized antimicrobial peptide Bolespleenin is dissolved in sterilized distillation-distillation H2O (ddH2O), filtered through a 0.22 μm filter membrane, and concentrations of the antimicrobial peptide Bolespleenin are then diluted to 3 μM, 6 μM, 12 μM, 24 μM, 48 μM, 96 μM, and 192 μM, and placed on ice for use.
(§7) (4) A blank control group, a negative control group, and an experimental group of each of the bacteria and the fungi to be tested are set on 96-well cell culture plates, and each of the blank control group, the negative control group, and the experimental group has three parallel samples.
(§8) The blank control group a: 50 μL of the antimicrobial peptide Bolespleenin with 50 μL of the corresponding medium;
(§9) The negative control group b: 50 μL of the sterilized ddH2O with 50 μL of each of the suspensions of the bacteria or the suspensions of the fungi; and
(§10) The experimental group c: 50 μL of the antimicrobial peptide Bolespleenin with 50 μL of each of the suspensions of the bacteria or the suspensions of the fungi.
(§11) (5) The 96-well cell culture plates are plated in an incubator at 28° C. and incubated for 1-2 days, and MIC results of the experimental group are observed. The experimental group is mixed by blowing, an appropriate amount of each of the suspensions of the bacteria or the suspensions of the fungi is sucked up, added dropwise onto the plate with the corresponding medium, and inverted and incubated at an appreciate temperature for 1-2 days, and MBC results are observed.

Aspergillus flavus = tested on: Aspergillus flavus
Excerpt: as §1, §2, §3, §4, §5, §6, §7, §8, §9, §10, §11

Cryptococcus neoformans = tested on: Cryptococcus neoformans
Excerpt: as §1, §2, §3, §4, §5, §6, §7, §8, §9, §10, §11

Enterococcus faecalis = tested on: Enterococcus faecalis
Excerpt: as §1, §2, §3, §4, §5, §6, §7, §8, §9, §10, §11

Enterococcus faecium = tested on: Enterococcus faecium
Excerpt: as §1, §2, §3, §4, §5, §6, §7, §8, §9, §10, §11

Escherichia coli = tested on: Escherichia coli
Excerpt: as §1, §2, §3, §4, §5, §6, §7, §8, §9, §10, §11

Fusarium oxysporum = tested on: Fusarium oxysporum
Excerpt: as §1, §2, §3, §4, §5, §6, §7, §8, §9, §10, §11

Fusarium solani = tested on: Fusarium solani
Excerpt: as §1, §2, §3, §4, §5, §6, §7, §8, §9, §10, §11

Pseudomonas aeruginosa = tested on: Pseudomonas aeruginosa
Excerpt: as §1, §2, §3, §4, §5, §6, §7, §8, §9, §10, §11

Staphylococcus aureus = tested on: Staphylococcus aureus
Excerpt: as §1, §2, §3, §4, §5, §6, §7, §8, §9, §10, §11

MIC (a-b) (Acinetobacter baumannii): 1.5 to 3 µM
MIC (a-b) (Aspergillus flavus): 6 to 12 µM
MIC (a-b) (Cryptococcus neoformans): <1.5 µM
MIC (a-b) (Enterococcus faecalis): 3 to 6 µM
MIC (a-b) (Enterococcus faecium): 1.5 to 3 µM
MIC (a-b) (Escherichia coli): 3 to 6 µM
MIC (a-b) (Fusarium oxysporum): 3 to 6 µM
MIC (a-b) (Fusarium solani): 3 to 6 µM
MIC (a-b) (Pseudomonas aeruginosa): <1.5 µM
MIC (a-b) (Staphylococcus aureus): <1.5 µM
Compound: CC[C@H](C)[C@H](NC(=O)[C@@H](N)CC(C)C)C(=O)NCC(=O)N[C@@H](CC(C)C)C(=O)N[C@@H](Cc1ccc(O)cc1)C(=O)N[C@@H](CC(C)C)C(=O)N[C@@H](CC(C)C)C(=O)N[C@@H](Cc1c[nH]cn1)C(=O)N[C@@H](CCCNC(=N)N)C(=O)N[C@@H](CCCNC(=N)N)C(=O)N[C@@H](CCCNC(=N)N)C(=O)N[C@@H](CCCNC(=N)N)C(=O)N[C@@H](CCCNC(=N)N)C(=O)N[C@@H](Cc1c[nH]cn1)C(=O)O [Bolespleenin, Leu-Ile-Gly-Leu-Tyr-Leu-Leu-His-Arg-Arg-Arg-Arg-Arg-His] (H-LIGLYLLHRRRRRH-OH)
MBC (a-b) (Acinetobacter baumannii): 1.5 to 3 µM
MBC (a-b) (Aspergillus flavus): 24 to 48 µM
MBC (a-b) (Cryptococcus neoformans): <1.5 µM
MBC (a-b) (Enterococcus faecalis): 3 to 6 µM
MBC (a-b) (Enterococcus faecium): 1.5 to 3 µM
MBC (a-b) (Escherichia coli): 6 to 12 µM
MBC (a-b) (Fusarium oxysporum): 3 to 6 µM
MBC (a-b) (Fusarium solani): 3 to 6 µM
MBC (a-b) (Pseudomonas aeruginosa): 1.5 to 3 µM
MBC (a-b) (Staphylococcus aureus): 1.5 to 3 µM
